pIC50: −log10 of the molar value.
Tests used:
[1] = Cytotoxicity against human HEK293T cells assessed as reduction in cell viability incubated for 72 hrs by CytoTox 96 nonradioactive assay; format: toxicity, cell-based, HEK-293T
[2] = molecular target: Replicase polyprotein 1ab (Severe acute respiratory syndrome coronavirus 2, UniProt P0DTD1); assay: Inhibition of N-terminal His6-tagged full length SARS-CoV-2 3CLpro using FAM-SAVLQ as substrate preincubated with enzyme for 1 hr followed by susbtrate addition and measured after 1 hr by FRET assay
[3] = Inhibition of MERS-CoV 3CLpro using FAM-SAVLQ as substrate preincubated with enzyme for 1 hr followed by susbtrate addition and measured after 1 hr by FRET assay; set-up: species or system Middle East respiratory syndrome-related coronavirus

Row | Structure (SMILES) | CC50 at 72 h [1] [nM] | pIC50 [2] | pIC50 [3]
1 | CC(C)C[C@H](NC(=O)OCC(C)(C)Sc1ccc(F)cc1)C(=O)N[C@H](C=O)C[C@@H]1CCNC1=O | > 50000 | 6.77 | 6.72
2 | CC(C)C[C@H](NC(=O)OCC(C)(C)Oc1ccc(F)cc1)C(=O)N[C@@H](C[C@@H]1CCNC1=O)C(O)S(=O)(=O)O (stereo partly specified) | > 50000 | 6.64 | 7.40
3 | CC(C)C[C@H](NC(=O)OCC(C)(C)Sc1nc2ccccc2[nH]1)C(=O)N[C@H](C=O)C[C@@H]1CCNC1=O | > 50000 | 6.52 | 6.92
4 | CC(C)C[C@H](NC(=O)OCC(C)(C)Oc1ccc(Cl)cc1)C(=O)N[C@H](C=O)C[C@@H]1CCNC1=O | > 50000 | 6.34 | 7.70
5 | CC(C)C[C@H](NC(=O)OCC(C)(C)Oc1ccccc1)C(=O)N[C@@H](C[C@@H]1CCNC1=O)C(O)S(=O)(=O)O (stereo partly specified) | > 50000 | 6.62 | 7.70
6 | CC(C)C[C@H](NC(=O)OCC(C)(C)Oc1cccc(F)c1)C(=O)N[C@H](C=O)C[C@@H]1CCNC1=O | > 50000 | 6.70 | 7.30
7 | CC(C)C[C@H](NC(=O)OCC(C)(C)Oc1cccc(F)c1)C(=O)N[C@@H](C[C@@H]1CCNC1=O)C(O)S(=O)(=O)O (stereo partly specified) | > 50000 | 6.92 | 7.40
8 | [2H]C([2H])(OC(=O)N[C@@H](CC(C)C)C(=O)N[C@@H](C[C@@H]1CCNC1=O)C(O)S(=O)(=O)[O-])C(C)(C)Oc1cccc(Cl)c1.[Na+] (stereo partly specified) | > 50000 | 6.55 | 7.15
9 | CC(C)C[C@H](NC(=O)OCCSc1ccccc1)C(=O)N[C@H](C=O)C[C@@H]1CCNC1=O | > 50000 | 6.49 | 6.85
10 | CC(C)C[C@H](NC(=O)OCC(C)(C)Sc1nc2ccccc2[nH]1)C(=O)N[C@@H](C[C@@H]1CCNC1=O)C(O)S(=O)(=O)O (stereo partly specified) | > 50000 |  | 6.68
11 | CC(C)C[C@H](NC(=O)OCC(C)(C)S(=O)(=O)c1ccccc1)C(=O)N[C@H](C=O)C[C@@H]1CCNC1=O | > 50000 | 6.72 | 6.59
12 | CC(C)C[C@H](NC(=O)OCC(C)(C)Oc1ccccc1)C(=O)N[C@H](C=O)C[C@@H]1CCNC1=O | > 50000 | 6.51 | 7.40
13 | CC(C)C[C@H](NC(=O)OCC(C)(C)Oc1ccc(Cl)cc1)C(=O)N[C@@H](C[C@@H]1CCNC1=O)C(O)S(=O)(=O)O (stereo partly specified) | > 50000 | 6.47 | 6.96
14 | CC(C)C[C@H](NC(=O)OCCSc1ccccc1)C(=O)N[C@@H](C[C@@H]1CCNC1=O)C(O)S(=O)(=O)O (stereo partly specified) | > 50000 | 6.51 | 6.85
15 | CC(C)C[C@H](NC(=O)OCC(C)(C)Sc1ccc(F)cc1)C(=O)N[C@@H](C[C@@H]1CCNC1=O)C(O)S(=O)(=O)O (stereo partly specified) | > 50000 | 6.57 | 6.82
16 | [2H]C([2H])(OC(=O)N[C@@H](CC(C)C)C(=O)N[C@H](C=O)C[C@@H]1CCNC1=O)C(C)(C)Oc1cccc(Cl)c1 | > 50000 | 6.52 | 7.40
17 | CC(C)C[C@H](NC(=O)OCC(C)(C)S(=O)(=O)c1ccccc1)C(=O)N[C@@H](C[C@@H]1CCNC1=O)C(O)S(=O)(=O)O (stereo partly specified) | > 50000 | 6.70 | 6.55
18 | CC(C)C[C@H](NC(=O)OCC(C)(C)[S+]([O-])c1ccccc1)C(=O)N[C@H](C=O)C[C@@H]1CCNC1=O (mixture of isomers) | > 50000 | 6.48 | 6.72
19 | CC(C)C[C@H](NC(=O)OCC(C)(C)[S+]([O-])c1ccccc1)C(=O)N[C@@H](C[C@@H]1CCNC1=O)C(O)S(=O)(=O)O (mixture of isomers) | > 50000 | 6.46 | 6.60

— ChEMBL document CHEMBL5325428 (Eur J Med Chem, 2023)
